Assay [1] concerns ApoE-deficient mice. In words: developmental milestones (placing response, cliff avoidance) in ApoE-deficient mice. In kind it is in vivo. The text has this:
Animals (15-37 per experimental group, 5-8 per litter) were submitted to placing response assays daily following injection of: 1. saline (open circles, C57B6 mice=control, n=37, closed circles, ApoE deficient=ApoE, n=22). Experiments were repeated three times. Score indicates: 0=no reaction, 1=time to acquire a response shorter than 15 seconds; 2=time to acquire a response shorter than 10 seconds; 3=time to acquire a response shorter than 5 seconds. Age (days) indicate: the age of the tested animals in days. Results are mean±SEM.
(§1) ApoE knockout mice and normal controls were a gift from the late Prof. Shlomo Eisenberg of Tel Aviv University, originally provided by Dr. J. L. Breslow (Plump et al., Cell 71:343-353 (1992)). The ApoE knockout mice were obtained from embryonic stem cells OLA 129 in C57B6×FVB mice (as described). Age-matched controls were inbred C57B6 mice. Groups of mouse pups were treated from birth until the age of 14 days. Daily subcutaneous injections included: […] saline (days 1 through 4), […] saline (days 5 through 10) and […] saline (days 11-14).
Developmental milestones were measured using at least three dams with […] each for every experimental point. All observations were made between 12 noon and 4 pm. From day one through day six, mice were weighed and tested 60 min. after the daily injection. Placing is a behavioral parameter that is measured as the time elapsing between contact of the foot against the edge of an object and its placing on the top of the same object.
Further measurements in the Apo-E-deficient mouse included assessments of the time of onset of developmental milestones of behavior. […] A significant difference was observed among the treatment groups on the first day of testing (P<0.0001), with inbred C57B6 mice developing faster than the ApoE-deficient animals. […] NAP-treated animals were the fastest.

Assay [2] deals with cerebral cortical cultures. In words: neuroprotection against β-amyloid peptide (25-35) neurotoxicity in cerebral cortical cultures. In kind it is cell-based, newborn rats. As to conditions: 25 μM β-amyloid fragment 25-35, five days; P<0.01.
Assay [3] relates to ApoE-deficient mice. Nature of the assay: water maze, ApoE-deficient and control mice after treatment for the first two weeks of life. The format is in vivo. As for the experimental part: Two daily water maze trials were performed on three week-old animals. Groups tested were: 1. control animals injected with vehicle for the first two weeks of life (35 animals of six different litters, with 5-7 animals from each litter, open circles); 2. ApoE-deficient animals injected with vehicle for the first two weeks of life (18 animals derived from three different litters, with 5-7 pups per litter, closed circles); 3. control animals chronically treated with NAP for the first two weeks of life (14 animals derived from three different litters, open triangles); and 4. ApoE-deficient mice chronically treated with NAP for the first two weeks of life (19 animals derived from three different litters, open rectangles). The figure depicts latency (of the second daily trial), measured in seconds, to reach the hidden platform 0.5 min. after being on it. Tests were performed over five consecutive days, and then with a two day delay tested for one additional day. ApoE=ApoE-deficient animals. There was no differences between animals treated with vehicle and untreated animals (data not shown). Statistical comparisons shown were made: 1. between ApoE-deficient and controls; 2. between ApoE-treated with NAP and ApoE-treated with vehicle; and 3. between control-treated with NAP and control-treated with vehicle (*P<0.001; **P<0.03; ***P<0.002). […]

Assay [4] relates to cerebral cortical cultures. In words: neuroprotection against NMDA toxicity in cerebral cortical cultures. In kind it is cell-based, newborn rats. The following applies: NMDA 10 μM.
Assay [5] deals with choline acetyl transferase. Nature of the assay: brain ChAT (choline acetyl transferase) activity in ApoE-deficient mice. In kind it is in vivo. As to conditions: daily subcutaneous injections from birth to 14 days, measured at 21 days. How it is done: The graph depicts incorporation of radio-labeled choline into acetylcholine. Experiments were conducted as described. Apo-E deficient mice are designated: ApoE; 100% activity in the control (C57B6) mice indicated 669758.4 pmole/mg protein/min. As the experiments were repeated 3-5 times the results were standardized against the control calibrated at 100% per each experiment. ApoE-deficient mice daily injected with peptides are designated ADNF-14, ADNF-9, and NAP, respectively.
ChAT activity was measured according to published procedures (Formum et al., Neurochem. 24:407-409 (1975)). Brains were homogenized with 10 volumes of 50 mM phosphate buffer containing 300 mM NaCl, 20 mM EDTA, and 0.5% triton. The homogenates were centrifuged at 12,000×g for 15 min., and […] of supernatant was mixed with […] of a solution of […] ^14C-acetyl CoA ([…] NEN), 20 mM acetylcholine, 1.6 mM choline chloride, 0.25 mM eserine, and phosphate buffer. Incubation was 15 min. at 37° C. The reaction was terminated and radioactivity was measured in a beta-counter. • 21. Apolipoprotein E (ApoE) Deficient Mouse Model
as §1
ChAT activity was measured according to published procedures (Formum et al., Neurochem. 24:407-409 (1975)).

Values joined by “and” are separate entries in the source; they are usually repeats but may differ in a detail not shown here. Equal values may be shown once. “Also recorded” adds a separate entry of the source.

On to Asn-Ala-Pro-Val-Ser-Ile-Pro-Gln [NAP], for which the “placing response from the second postnatal day onwards” value in the assay with ApoE-deficient mice [1] (P<0.0001) is reported as “best performers”. The “acquisition of the placing response and the cliff avoidance response” value with ApoE-deficient mice [1] (daily injection) was “showed acceleration”. Also, the “marked improvement of placing response at the first day of treatment” value in the assay on ApoE-deficient mice [1] (tested 60 min. after injection) is “marked improvement; also recorded: the fastest”. For the same substance, in assay [2], the “concentrations of significant neuroprotection against β-amyloid” value was 10^−16 M and 10^−15 M. Besides, the “water maze performance (latency to hidden platform, second daily trial)” value with ApoE-deficient mice [3] (ApoE-deficient mice, treated first two weeks of life, tested from 21 days) is “performed as well as control animals; also recorded: ameliorated”. The “water maze performance (latency to hidden platform, second daily trial)” value in the assay on ApoE-deficient mice [3] (control animals chronically treated for the first two weeks of life) is listed as “improved their performance”. In addition, the “concentrations of significant neuroprotection against NMDA” value in assay [4] is reported as > 10^−16 M. In assay [5], the “brain ChAT activity compared with inbred C57B6 mice” value is listed as “not significantly different; also recorded: indistinguishable from controls” and the “brain ChAT activity compared with vehicle-treated or untreated ApoE-deficient mice” value is given as “significantly improved”.

Source of the values: patent US7264947B2, “Activity dependent neurotrophic factor III (ADNF III)” (United States of America, as represented by the Secretary …, priority 1997, dated 2007).
